Here are results for 3 compounds from US12295983B2, “Use of extracts of the leaves of lemon verbena (Aloysia citriodora) for increasing the neuronal, cerebral availability of neurotransmitters selected from the group of serotonin, dopamine, noradrenaline” (Finzelberg GMBH & Co. KG, priority 2018, dated 2025).

The test system of assay [1] is transgenic C. elegans strain CL4176 expressing human β-amyloid (Aβ 1-42). Briefly: β-Amyloid-induced toxicity (paralysis, PT50) in C. elegans model. The assay is classed as in vivo, Caenorhabditis elegans. The settings on record: 200 μg/ml; negative control 31.0 ± 0.4. The procedure:
In order to test the effect on β-amyloid toxicity, the transgenic C. elegans strain CL4176, which can express human β-amyloid (Aβ 1-42), was employed. Aβ expression can be induced by increasing the temperature. Age-synchronized and treated worms were incubated at 16° C. for 48 hours. After increasing the temperature to 25° C. and incubation for 24 hours, the worms began to get paralyzed because of the toxicity of the Aβ oligomer. The paralysis was evaluated every 2 hours (experimental set-up according to Heiner et al.: Sideritis scardica extracts inhibit the aggregation of α-synuclein and β-amyloid peptides in Caenorhabditis elegans used as a model for neurodegenerative diseases. Planta Medica 81—PW_127, 2015). Substances that counteract this toxic effect of β-amyloid lead to a slower or later paralysis of the animals. Such substances delay the neurodegeneration, inter alia, in Alzheimer's dementia. The median (PT50), which is the time when exactly 50% of the nematodes were paralyzed, was used as a comparative value.

The test system of assay [2] is transgenic C. elegans strain CL2355 expressing human β-amyloid pan-neuronally. Briefly: β-Amyloid-induced neuronal dysfunction, chemotaxis towards benzaldehyde. The assay is classed as in vivo, Caenorhabditis elegans. The procedure:
β-Amyloid species can damage neurons and trigger a dysfunction of neuronally controlled behavior. The transgenic C. elegans strain CL2355 expresses human β-amyloid on a pan-neuronal level. This leads to cognitive disorders, such as reduced chemotactic movement towards an attractant (benzaldehyde). In the experiments, the chemotaxis index, i.e., the proportion of worms moved towards the attractant on the agar plate, was measured. […] The experiment was performed in accordance with […] et al.

Assay [3] concerns the target T1, serotonin reuptake in synaptosomes from rat cortex (Rattus norvegicus, UniProt P31652).
T1 construct: Freshly isolated synaptosomes from rats were used; from tissue; host or cells: synaptosomes from rat cortex
The following applies: read-out: Serotonin (IC50 μg/ml); literature value, Markowitz et al.; cited from earlier work.

The target of assay [4] is T1, serotonin reuptake in synaptosomes from rat cortex. Description: Serotonin reuptake test with [3H]-serotonin in freshly isolated synaptosomes. The settings on record: ratio of reuptake IC50 values. The assay is classed as biochemical.
Description: Freshly isolated synaptosomes from rats were used according to Perovic and Müller [Perovic S, Müller W E, 1995, Arzneimittelforschung 45; 1145-1148] for a dopamine reuptake test, and a serotonin reuptake test, and a noradrenaline reuptake test. [^3H]-dopamine, [^3H]-noradrenaline and [^3H]-serotonin, respectively, served as the ligands. The test substance was incubated with the synaptosomes and the corresponding ligand for 15 min at 37° C. in the dark. The samples were then transferred to GF/C filter plates, and washed cold twice, and dried, before the filter-bound radioactivity was measured with a microtitration plate counter (Microbeta, Wallac, Finland). For determining the 100% reuptake, the experiment was performed without test substances. The measured value for incubation with corresponding inhibitors (GBR12909 in the dopamine reuptake inhibition, protriptyline in the noradrenaline reuptake inhibition, and imipramine hydrochloride for the serotonin reuptake inhibition) was considered as a 0% uptake.
In assay [5] the test system is noradrenaline reuptake in synaptosomes from rat cortex. The settings on record: literature value, cited from earlier work.
Assay [6] deals with T2, dopamine reuptake in synaptosomes from rat cortex (Rattus norvegicus, UniProt P23977).
T2 construct: Freshly isolated synaptosomes from rats were used; from tissue; host or cells: synaptosomes from rat cortex
The following applies: read-out: Dopamine (IC50 μg/ml), literature value, cited from earlier work.

For assay [7], the system named is dopaminergic neurons of transgenic C. elegans strain BZ555. Description: Protection of dopaminergic neurons from 6-OHDA-induced degeneration (GFP fluorescence). The settings on record: worms + 50 mM 6-OHDA + 100 μg/ml; negative control 34.3 ± 4.3. The assay is classed as in vivo, Caenorhabditis elegans. On the procedure:
6-Hydroxydopamine (6-OHDA) damages dopaminergic neurons, which is used in different animal models. The transgenic C. elegans strain BZ555 expresses green fluorescent protein in dopaminergic neurons. Thus, the 6-OHDA-induced neurodegeneration or the reduction thereof can be quantified by fluorescence microscopy. The worms were exposed to 50 mM 6-OHDA, which reduces the fluorescence intensity of the neurons because of the degeneration thereof. Bupropione, a selective noradrenaline and dopamine reuptake inhibitor (NDRI), serves as the positive control. Through the inhibition of the noradrenaline (NA) or dopamine (DA) transporters (reuptake), bupropion prevents the neurotoxin 6-OHDA from getting into and damaging the neurons.

Where two headings read alike, the source gives them in different places.

T1 sequence (P31652 whole entry): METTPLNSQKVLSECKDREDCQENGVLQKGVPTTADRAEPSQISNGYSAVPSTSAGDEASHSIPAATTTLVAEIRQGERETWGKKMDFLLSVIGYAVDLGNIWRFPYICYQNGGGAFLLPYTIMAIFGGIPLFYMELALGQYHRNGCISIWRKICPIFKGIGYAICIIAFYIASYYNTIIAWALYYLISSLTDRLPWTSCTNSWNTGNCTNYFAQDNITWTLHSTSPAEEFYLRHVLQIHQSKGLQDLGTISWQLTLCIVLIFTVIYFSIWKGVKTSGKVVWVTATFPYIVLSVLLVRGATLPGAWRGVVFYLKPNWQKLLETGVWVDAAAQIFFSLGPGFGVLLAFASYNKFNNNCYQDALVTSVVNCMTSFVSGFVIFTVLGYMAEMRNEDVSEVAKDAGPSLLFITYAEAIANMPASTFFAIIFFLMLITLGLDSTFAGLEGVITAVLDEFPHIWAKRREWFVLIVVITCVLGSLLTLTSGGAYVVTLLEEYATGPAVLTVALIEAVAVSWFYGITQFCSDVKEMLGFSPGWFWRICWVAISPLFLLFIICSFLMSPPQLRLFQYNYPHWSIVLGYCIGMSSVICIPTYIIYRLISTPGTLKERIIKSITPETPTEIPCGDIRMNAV
T2 sequence (P23977 whole entry): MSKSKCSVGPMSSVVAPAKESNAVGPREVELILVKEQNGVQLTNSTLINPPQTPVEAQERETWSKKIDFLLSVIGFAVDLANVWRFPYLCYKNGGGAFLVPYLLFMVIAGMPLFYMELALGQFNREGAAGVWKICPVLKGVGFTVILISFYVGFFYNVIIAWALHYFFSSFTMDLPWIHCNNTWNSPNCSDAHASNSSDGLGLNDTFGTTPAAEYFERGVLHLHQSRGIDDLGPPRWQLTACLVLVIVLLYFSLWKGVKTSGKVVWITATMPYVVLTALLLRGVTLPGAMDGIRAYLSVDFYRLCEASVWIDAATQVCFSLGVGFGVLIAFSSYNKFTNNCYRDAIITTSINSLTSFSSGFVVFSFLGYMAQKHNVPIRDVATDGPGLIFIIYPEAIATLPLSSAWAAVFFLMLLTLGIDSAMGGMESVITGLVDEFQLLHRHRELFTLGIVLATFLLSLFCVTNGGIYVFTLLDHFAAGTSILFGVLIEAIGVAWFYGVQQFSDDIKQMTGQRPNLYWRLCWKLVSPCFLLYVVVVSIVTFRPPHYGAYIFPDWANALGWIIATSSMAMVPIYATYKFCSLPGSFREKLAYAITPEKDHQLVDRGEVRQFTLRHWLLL

`C[C@@H]1O[C@@H](O[C@@H]2[C@@H](O)[C@H](OCCc3ccc(O)c(O)c3)O[C@H](CO)[C@H]2OC(=O)/C=C/c2ccc(O)c(O)c2)[C@H](O)[C@H](O)[C@H]1O` [acteoside]: in assay [1], the “PT50 value” was 32.8 ± 0.3 h. Also, the “share of the chemotaxis index of the control strain CL2122 reached” value in assay [2] (200 μg/ml) is given as “about 88%”. The Chemotaxis index in assay [2] (CL2355, 200 μg/ml, untreated 0.10 ± 0.04, control strain CL2122 0.50 ± 0.09) is 0.45 ± 0.02 (p < 0.05).

In the case of `COC(=O)C(c1ccccc1)C1CCCCN1` (stereo not shown) [Methylphenidate], the IC50 in assay [3] is 18.5 µM; in assay [6] (Markowitz et al.), 1.11 µM; in assay [6] (Sommer et al.), 0.489 µM. Further, the “activity ratio of serotonin to noradrenaline (factor)” value in assay [4] is reported as 86. In addition, the “Noradrenaline (IC50 μg/ml)” value is 0.052 µg/mL in assay [5] (Markowitz et al.) and 0.050 µg/mL in assay [5] (Sommer et al.).

As to `CC(NC(C)(C)C)C(=O)c1cccc(Cl)c1` (stereo not shown) [bupropion], the “Fluorescence intensity [% of untreated group]” value in assay [7] is 68.2 ± 7.7 % of untreated group.
